This is an account of results in patent publication US20210024507A1, “Compounds” (Step Pharma S.A.S., priority 2018, published 2021).

For assay [1], the target named is T1, human CTPS1 (Homo sapiens, UniProt P17812).
T1 construct: purchased Proteros biostructures GmbH
T1 sequence (P17812 1-591): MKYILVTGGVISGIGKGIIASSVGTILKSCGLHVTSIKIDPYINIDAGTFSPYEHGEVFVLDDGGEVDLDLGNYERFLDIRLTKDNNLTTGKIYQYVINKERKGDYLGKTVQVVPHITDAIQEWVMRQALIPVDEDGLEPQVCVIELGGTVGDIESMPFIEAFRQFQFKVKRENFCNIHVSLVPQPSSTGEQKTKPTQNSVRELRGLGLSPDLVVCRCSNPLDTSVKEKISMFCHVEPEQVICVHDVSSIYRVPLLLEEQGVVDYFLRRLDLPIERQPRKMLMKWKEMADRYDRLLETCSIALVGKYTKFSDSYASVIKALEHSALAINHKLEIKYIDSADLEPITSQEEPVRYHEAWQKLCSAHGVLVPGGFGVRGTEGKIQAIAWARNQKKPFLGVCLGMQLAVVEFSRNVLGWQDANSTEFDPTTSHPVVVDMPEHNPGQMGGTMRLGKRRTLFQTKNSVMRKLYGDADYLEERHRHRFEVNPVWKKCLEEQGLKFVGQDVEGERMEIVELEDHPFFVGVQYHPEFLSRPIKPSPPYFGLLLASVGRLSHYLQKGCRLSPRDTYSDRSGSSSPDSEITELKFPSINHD
The assay can be described thus: Human CTPS1 enzyme inhibition (ADP-Glo Max assay). In kind it is biochemical. The settings on record: human full length CTPS1, 25° C., read-out: CTPS1 (Human CTPS1 Enzyme Inhibition, IC50 grouped by potency range). The method, boiled down:
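Full-length C-terminal FLAG-His-tagged CTPS1, preincubated 10 min at 25 °C with compound in 50mM Tris pH 8.0, 10mM MgCl2, 0.01% Tween-20, 2mM L-cysteine. Started with ATP 0.31mM, GTP 0.034mM, UTP 0.48mM, L-glutamine 0.186mM in substrate mix, run within linear phase at 25 °C. ADP via ADP-Glo Max luminescence; IC50 from % inhibition curve.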

In assay [2] the test system is human CTPS1. The assay is described as follows: RapidFire/MS-based enzyme selectivity assay, human CTPS1. In kind it is biochemical. To be noted: calculated from the CTPS1 and CTPS2 IC50 values. How it is done:
The enzyme inhibitory activities against each target isoform of interest may be determined for the compounds of the invention using an optimised RapidFire high-throughput mass spectrometry (RF/MS) assay format. RF/MS assays for both human CTPS1 and CTPS2 may be performed in assay buffer consisting of 50mM HEPES (Merck), 20mM MgCl2, 5mM KCI, 1mM DTT, 0.01% Tween-20, pH to 8.0 accordingly. Human full-length active C-terminal FLAG-His-tag CTPS1 (UniProtKB - P17812, CTPS[1-591]-[…]) may be obtained from Proteros biostructures GmbH. Human full length active C-terminal FLAG-His-Avi tagged CTPS2 (UniProtKB-Q9NRF8, CTPS2 [1-586]- […]) may be obtained from Harker Bio.
Human CTPS (1 or 2) protein may be prepared in lx assay buffer to the final working protein concentration required for the reaction. A 2uL volume per well of 2× CTPS (1 or 2) protein may be mixed with 40nL of compound using acoustic (ECHO) delivery and incubated for 10 minutes at 25° C. Each isoform enzymatic reaction may be subsequently initiated by addition of 2uL per well of a 2× substrate mix in assay buffer. For hCTPS1: ATP (0.3mM), UTP (0.2mM), GTP (0.07mM) and L-glutamine (0.1mM). For hCTPS2: ATP (0.1mM), UTP (0.04mM), GTP (0.03mM) and L-glutamine (0.1mM). Each mixture may be incubated for an appropriate amount of time per isoform within the determined linear phase of the reaction at 25° C. A 60uL volume of stop solution (1% formic acid with 0.5uM ^13C9-^15N3-CTP in H2O) may be added and the plate immediately heat-sealed and centrifuged for 10 minutes at 4,000rpm. Following centrifugation, plates may be loaded onto the Agilent RapidFire microfluidic solid phase extraction system coupled to an AP14000 triple quadrupole mass spectrometer (RF/MS) for analysis.
In all cases, the enzyme converts UTP to CTP. Highly specific and sensitive multiple reaction monitoring (MRM) MS methods may be optimised for the detection of the enzymatic reaction product, CTP, and the stable isotope labelled product standard ^13C9-^15N3-CTP. Readout for data analysis may be calculated as the ratio between the peak area of the product CTP and the internal standard ^13C9-^15N3-CTP. For data reporting, the following equation may be used:
[formula] (R=ratio/readout, P=product signal area, IS=internal standard signal area)
For each screening plate, the means of the negative (DMSO) and positive control values were used for the calculation of the respective assay window (S/B) and Z′ values. The median of the respective control values was used for calculation of percent inhibition according to the following equation:
[formula] (I=Inhibition, Rneg=median of negative control readout values, Rpos=median of positive control readout values, Rsample=sample readout value)
Percentage inhibition was then plotted against compound concentration, and the 50% inhibitory concentration (IC50) was determined from the resultant concentration-response curve.
Fold selectivity between CTPS1 and CTPS2 was subsequently calculated according to the following equation: […]

In general, IC50 refers to the point on the concentration scale where inhibition reaches its midpoint.

Structures are written as SMILES.

Turning to `CCC(C(=O)Nc1ccc(-c2cncc(C(F)(F)F)n2)cn1)c1ccnc(NS(=O)(=O)C2CC2)n1` (stereo not drawn) [P87, 2-(2-(cyclopropanesulfonamido)pyrimidin-4-yl)-N-(5-(6-(trifluoromethyl)pyrazin-2-yl)pyridin-2-yl)butanamide], on human CTPS1 [1], the IC50 was ≤ 0.1 µM. In the assay with human CTPS1 [2], the “Selectivity (fold selectivity between CTPS1 and CTPS2)” value was “++ (>30-60 fold (++))”.
In the case of `CCOc1cncc(-c2ccc(NC(=O)C(F)(CC)c3ccnc(NS(=O)(=O)C4CC4)n3)nc2)n1` (racemic) [P112, 2-(2-(Cyclopropanesulfonamido)pyrimidin-4-yl)-N-(5-(6-ethoxypyrazin-2-yl)pyridin-2-yl)-2-fluorobutanamide], at human CTPS1 [1], the IC50 is ≤ 0.1 µM. The “Selectivity (fold selectivity between CTPS1 and CTPS2)” value in the assay on human CTPS1 [2] is recorded as “++ (>30-60 fold (++))”.
As to `CCC(C(=O)Nc1ccc(-c2cncc(OC)n2)cc1F)c1ccnc(NS(=O)(=O)C2CC2)n1` (stereo not drawn) [P95, 2-(2-(cyclopropanesulfonamido)pyrimidin-4-yl)-N-(2-fluoro-4-(6-methoxypyrazin-2-yl)phenyl)butanamide], the IC50 on human CTPS1 [1] was ≤ 0.1 µM. Besides, in the assay on human CTPS1 [2], the “Selectivity (fold selectivity between CTPS1 and CTPS2)” value is listed as “+ (2-30 fold (+))”.
As for `CCOc1cncc(-c2ccc(NC(=O)C(F)(CC)c3ccnc(NS(=O)(=O)C4CC4)n3)nc2)n1` (single isomer, unassigned) [P114, 2-(2-(cyclopropanesulfonamido)pyrimidin-4-yl)-N-(5-(6-ethoxypyrazin-2-yl)pyridin-2-yl)-2-fluorobutanamide], the IC50 at human CTPS1 [1] is ≤ 0.1 µM. In addition, the “Selectivity (fold selectivity between CTPS1 and CTPS2)” value in the assay with human CTPS1 [2] is “+++ (>60 fold (+++))”.
On to `CCOc1cncc(-c2ccc(NC(=O)C(CC)c3ccnc(NS(=O)(=O)C4CC4)n3)cc2)n1` (stereo not drawn) [P105, 2-(2-(cyclopropanesulfonamido)pyrimidin-4-yl)-N-(4-(6-ethoxypyrazin-2-yl)phenyl)butanamide], for which the concentration for half-maximal inhibition (IC50) on human CTPS1 [1] is ≤ 0.1 µM. Besides, the “Selectivity (fold selectivity between CTPS1 and CTPS2)” value in the assay on human CTPS1 [2] is reported as “++ (>30-60 fold (++))”.
Take `CCOc1cncc(-c2ccc(NC(=O)C(CC)c3cncc(NS(=O)(=O)C4CC4)n3)cc2)n1` (stereo not drawn) [P202, 2-(6-(cyclopropanesulfonamido)pyrazin-2-yl)-N-(4-(6-ethoxypyrazin-2-yl)phenyl)butanamide]: on human CTPS1 [1], the IC50 was ≤ 0.1 µM. In addition, in the assay on human CTPS1 [2], the “Selectivity (fold selectivity between CTPS1 and CTPS2)” value was “+++ (>60 fold (+++))”.
Turning to `CCOc1cncc(-c2ccc(NC(=O)C(CCOC)c3ccnc(NS(=O)(=O)C4CC4)n3)cc2)n1` (stereo not drawn) [P110, 2-(2-(cyclopropanesulfonamido)pyrimidin-4-yl)-N-(4-(6-ethoxypyrazin-2-yl)phenyl)-4-methoxybutanamide], on human CTPS1 [1], the IC50 is ≤ 0.1 µM. Also, the “Selectivity (fold selectivity between CTPS1 and CTPS2)” value in the assay with human CTPS1 [2] is on record as “++ (>30-60 fold (++))”.
As for `CCOc1cncc(-c2ccc(NC(=O)C(CC)c3cccc(NS(=O)(=O)C4CC4)n3)nc2)n1` (stereo not drawn) [P188, 2-(6-(cyclopropanesulfonamido)pyridin-2-yl)-N-(5-(6-ethoxypyrazin-2-yl)pyridin-2-yl)butanamide], the IC50 at human CTPS1 [1] was ≤ 0.1 µM. The “Selectivity (fold selectivity between CTPS1 and CTPS2)” value with human CTPS1 [2] is “++ (>30-60 fold (++))”.
For the molecule `CCC(C(=O)Nc1ccc(-c2cncc(OCC(F)(F)F)n2)cc1F)c1ccnc(NS(=O)(=O)C2CC2)n1` (stereo not drawn) [P98, 2-(2-(cyclopropanesulfonamido)pyrimidin-4-yl)-N-(2-fluoro-4-(6-(2,2,2-trifluoroethoxy)pyrazin-2-yl)phenyl)butanamide], the IC50 on human CTPS1 [1] is ≤ 0.1 µM. For the same molecule, the “Selectivity (fold selectivity between CTPS1 and CTPS2)” value in the assay on human CTPS1 [2] is “+++ (>60 fold (+++))”.
Turning to `CCOc1cncc(-c2ccc(NC(=O)C(CC)c3cncc(NS(=O)(=O)C4CC4)n3)nc2)n1` (stereo not drawn) [P201, 2-(6-(cyclopropanesulfonamido)pyrazin-2-yl)-N-(5-(6-ethoxypyrazin-2-yl)pyridin-2-yl)butanamide], on human CTPS1 [1], the IC50 was ≤ 0.1 µM. Further, in the assay on human CTPS1 [2], the “Selectivity (fold selectivity between CTPS1 and CTPS2)” value is given as “+++ (>60 fold (+++))”.
On to `CCOc1cncc(-c2ccc(NC(=O)C(CC)c3cccc(NS(=O)(=O)C4CC4)n3)cc2)n1` (stereo not drawn) [P191, 2-(6-(cyclopropanesulfonamido)pyridin-2-yl)-N-(4-(6-ethoxypyrazin-2-yl)phenyl)butanamide], for which the IC50 at human CTPS1 [1] was 0.1 to 1 µM. Moreover, the “Selectivity (fold selectivity between CTPS1 and CTPS2)” value in the assay on human CTPS1 [2] is on record as “++ (>30-60 fold (++))”.
Regarding `CCOc1cncc(-c2ccc(NC(=O)C(C)(CCOC)c3cncc(NS(=O)(=O)C4CC4)n3)nc2)n1` (stereo not drawn) [P198, 2-(6-(cyclopropanesulfonamido)pyrazin-2-yl)-N-(5-(6-ethoxypyrazin-2-yl)pyridin-2-yl)-4-methoxy-2-methylbutanamide], the IC50 on human CTPS1 [1] was ≤ 0.1 µM. In the assay with human CTPS1 [2], the “Selectivity (fold selectivity between CTPS1 and CTPS2)” value is given as “+++ (>60 fold (+++))”.
Regarding `CCOc1cncc(-c2ccc(NC(=O)C(F)(CC)c3cncc(NS(=O)(=O)C4CC4)n3)nc2)n1` (stereo not drawn) [P200, 2-(6-(cyclopropanesulfonamido)pyrazin-2-yl)-N-(5-(6-ethoxypyrazin-2-yl)pyridin-2-yl)-2-fluorobutanamide], the IC50 on human CTPS1 [1] was ≤ 0.1 µM. Besides, the “Selectivity (fold selectivity between CTPS1 and CTPS2)” value with human CTPS1 [2] is “++ (>30-60 fold (++))”.
For `CCOc1cncc(-c2ccc(NC(=O)C(CC)c3ccnc(NS(=O)(=O)C4CC4)n3)nc2)n1` (stereo not drawn) [P88, 2-(2-(cyclopropanesulfonamido)pyrimidin-4-yl)-N-(5-(6-ethoxypyrazin-2-yl)pyridin-2-yl)butanamide] the same measures were ≤ 0.1 µM and “+++ (>60 fold (+++))”.
As for `CCOc1cncc(-c2ccc(NC(=O)C(CC)c3ccnc(NS(=O)(=O)C4CC4)n3)c(F)c2)n1` (stereo not drawn) [P96, 2-(2-(cyclopropanesulfonamido)pyrimidin-4-yl)-N-(4-(6-ethoxypyrazin-2-yl)-2-fluorophenyl)butanamide], the half-inhibitory concentration (IC50) at human CTPS1 [1] is ≤ 0.1 µM. In addition, the “Selectivity (fold selectivity between CTPS1 and CTPS2)” value in the assay with human CTPS1 [2] is reported as “+ (2-30 fold (+))”.
Take `CCC(C(=O)Nc1ccc(-c2cncc(C(F)(F)F)n2)cc1)c1ccnc(NS(=O)(=O)C2CC2)n1` (stereo not drawn) [P103, 2-(2-(cyclopropanesulfonamido)pyrimidin-4-yl)-N-(4-(6-(trifluoromethyl)pyrazin-2-yl)phenyl)butanamide]: the IC50 on human CTPS1 [1] fell in the range of 0.1 to 1 µM. Also, in the assay on human CTPS1 [2], the “Selectivity (fold selectivity between CTPS1 and CTPS2)” value is “+ (2-30 fold (+))”.
For `CCC(C(=O)Nc1ccc(-c2cncc(OC(C)C)n2)cn1)c1ccnc(NS(=O)(=O)C2CC2)n1` (stereo not drawn) [P89, 2-(2-(cyclopropanesulfonamido)pyrimidin-4-yl)-N-(5-(6-isopropoxypyrazin-2-yl)pyridin-2-yl)butanamide], the IC50 on human CTPS1 [1] was ≤ 0.1 µM. In addition, the “Selectivity (fold selectivity between CTPS1 and CTPS2)” value in the assay on human CTPS1 [2] was “+++ (>60 fold (+++))”.
In the case of `CCOc1cncc(-c2ccc(NC(=O)C(F)(CC)c3ccnc(NS(=O)(=O)C4CC4)n3)nc2)n1` (single isomer, unassigned) [P113, 2-(2-(cyclopropanesulfonamido)pyrimidin-4-yl)-N-(5-(6-ethoxypyrazin-2-yl)pyridin-2-yl)-2-fluorobutanamide], the IC50 at human CTPS1 [1] was ≤ 0.1 µM. For the same molecule, the “Selectivity (fold selectivity between CTPS1 and CTPS2)” value in the assay on human CTPS1 [2] is listed as “+ (2-30 fold (+))”.
